{
  "source": "patent US20020065225A1",
  "about": "“Methods of determining altered NDPK functions and the diagnosis of cystic fibrosis” (priority 1999, published 2002)",
  "key": {"NDPK [1]": {"system": "NDPK", "assay": "Peptide-affinity column binding of human nasal membrane proteins, eluate labelled with [32P]ATP", "conditions": "wild-type human nasal epithelium membrane proteins, eluate slot blots exposed to [32P]ATP", "experimental": "(§1) We speculated that this part of CFTR would associate with protein(s) from the chloride-sensitive phosphorylation cascade. We constructed peptides corresponding to the CFTR region encompassing position 508 of human CFTR. Membrane proteins from wild-type human nasal epithelium were incubated with either of two peptides corresponding to the wild-type or the ΔF508 mutant form of CFTR (KENIIFGVSYDEYR or KENIIGVSYDEYR, respectively) linked to an affinity matrix (^18). […] In order to generate sufficient material to characterise the bound protein(s), this experiment was repeated using the equivalent ovine wild-type CFTR peptide (KDNIIFGVSYDEYR) and membrane proteins from ovine tracheal epithelia (^18) Proteins eluted from this peptide column were phosphorylated with γ[^32P]ATP and separated by SDS-PAGE. […] In contrast, the failure of membrane-delimited UTP production in CF does provide an additional rationale for the administration of UTP in this disease.\n18. Human nasal epithetium: Apical membrane proteins from human nasal epithelium were solubilised at 4° C. (10 mM KOH, 0.1% Tween), dialysed against PBS-Tween containing protease inhibitors (3 h) and spun at 150 000 g for 1 h. The supernatant was then re-circulated over affinity supports containing either synthetic peptide KENIIFGVSYDEYR or KENIIGVSYDEYR, corresponding to the F508 region of wild-type or […] mutant CFTR, respectively. The columns were washed with PBS-Tween (0.1%) and eluted with 1M KI. Fractions (40×1 ml) were slot blotted onto nitrocellulose under vacuum. The blots were washed in buffer A (10 mM MOPS pH 7.9, 1 mM MgCl2, 0.05% Triton X-100, 1 mM ATP) for 10 min and subsequently labelled with 5 nM γ[^32P]ATP (specific activity 222 TBq/mmol) in buffer A (1 h at room temperature). The blots were finally washed with PBS-Tween (0.1%) for 30 min (6 buffer changes) and visualised using electronic autoradiography. Sheep tracheal epithelia. The pelleted membranes from sheep tracheal epithelia were solubilised with 0.1% glucopyranoside in 50 mM HEPES pH 7.4 on ice for 1 h and centrifuged at 100 000×g for 30 min. […]"}, "p37 (Anx I)": {"system": "p37 (Anx I)", "conditions": "cited from earlier work"}, "Anx I [2]": {"system": "Anx I", "assay": "Anx I phosphorylation in murine tracheal epithelium membrane and cytosol with ATP+GDP", "type": "biochemical, mouse", "excerpt": "Cyclic AMP controls both the membrane aggregating and the cation channel properties of Anx I via a proposed cAMP binding site^20. Because cAMP-dependent fluid secretion^22 and vesicle trafficking^2,3,22 are both disordered in CF airway and annexins share significant homology with the region of CFTR (amino acids 500-529) bearing the common disease mutation^7, we speculated that annexins may be involved in CF. […] We observed an absence of a 37 kDa phosphoprotein in plasma membranes from the airway of a CF mouse model, Cftr^tm1cam, which expresses no CFTR (FIG. 6a, quantitation FIG. 6e). We confirmed the identity of murine p37 as Anx I by immunoprecipitating pre-phosphorylated [^32P]p37 from wild type membranes using antibodies against Anx I (FIG. 5c). […] Because Anx I is a membrane-associated protein which shuttles between membrane and cytosol^26, we studied Anx I phosphorylation in cytosol from wild-type and Cftr^tm1Cam. In the absence of GDP and in contrast to the membrane, we found no differences in Anx I phosphorylation between wild-type and Cftr^tm1Cam cytosol (FIG. 6b; quantitation f). We confirmed the identity of cytosolic p37 as Anx I by immunoprecipitating pre-phosphorylated [^32P]p37 as described above (data not shown). […] It is possible that the excess protein results from a compensatory increase in synthesis to overcome a disruption of function. Excess Anx I protein is consistent with the elevated plasma concentrations of the calcium-dependent annexin binding proteins (S100A8 and A9 or CF antigen) in both CF carriers and patients^27. S100 proteins form obligate dimers^6 which bring together the N termini of different Anx I monomers to promote membrane-membrane fusion.\nSwiss mice (wild-type) (6-10 weeks old) and mutant Cftr^tm1Cam mice^12 (4-12 weeks old) were used in this study. […]\nAs described previously^15. […] Pre-stained molecular weight markers were used to avoid staining and destaining of gels prior to imaging and quantification. The incorporation of ^32PO4 into individual protein bands was detected using electronic autoradiography (Canberra-Packard Instant Imager)."}, "Anx I [3]": {"system": "Anx I", "assay": "Nature of the phospho-linkage on ovine [32P]Anx I", "type": "biochemical", "conditions": "data not shown", "experimental": "Previously, annexins have been reported, to be phosphorylated on serine and tyrosine residues within the N-terminus by PKC and EGF receptor kinase, respectively^18 but acid hydrolysis (6 N HCl at 105° C., 2 h) of ovine [^32P]Anx I. (labelled for 5 min) removed>95% of the radioactivity from p37 (Anx I) (data not shown). Further analysis confirmed that this phospho-linkage was not on serine, threonine or tyrosine residues because it was acid labile (FIG. 5e, lanes 1 and 3), base stable (FIG. 5e, lane 2) and inhabitable following pre-incubation with diethylpyrocarbamate (modifies histidine residues, data not shown). […] To our knowledge, this is the first report in annexins. […] Histidine phosphorylation may regulate the proposed functions of the core—cation channel permeation^20 and/or membrane fusion^6,8.\nAs described previously^19. In order to determine the nature of the phosphate linkage on [^32-P]-annexin I, a membrane fraction was labelled with γ[^32P] GTP or γ[^32P] ATP for 5 min at 37° C. The reaction was terminated with 5x Laemmli sample buffer. Phosphorylated protein (10 μg) was then incubated at 30° C. for 10 min in reaction mixtures containing phosphorylation buffer alone, 0.1 N HCl (pH 1), 0.1 N NaOH (pH 13) or 0.8 M hydroxylamine-0.1 M acetate (pH 5.2). […]"}, "annexin I": {"system": "annexin I", "assay": "Inhibition of annexin I phosphorylation in a membrane preparation", "type": "biochemical", "experimental": "Following pre-incubation with N^6-monobutyryladenosine 3′:5′ cyclic monophosphate (N^6-mbcAMP) (0-1 mM) at 4° C. for 30 min, a membrane preparation was phosphorylated with γ[^32P] ATP at 37° C. for 5 min.\nAs described previously^15. Phosphorylation and Electronic Autoradiography - Briefly, proteins were phosphorylated with either 37 kBq γ[^32P] ATP or GTP (final nucleotide concentration, 16 nM) in 10 mM MOPS pH 7.9 containing 5 mM DTT. The reaction was terminated by adding 5x Laemmli sample buffer (Laemmli (1970) Nature 227, 680-685) and the proteins separated by SDS-PAGE using 12.5% polyacrylamide gels. Pre-stained molecular weight markers were used to avoid staining and destaining of gels prior to imaging and quantification. The incorporation of ^32PO4 into individual protein bands was detected using electronic autoradiography (Canberra-Packard Instant Imager)."}, "NDPK [4]": {"system": "NDPK", "assay": "Ovine CFTR peptide affinity column with ovine tracheal epithelial membrane proteins", "type": "binding, sheep", "conditions": "for Western blot of eluate with antibodies specific to NDPK: eluate from ovine CFTR peptide column; for phosphorylated species in eluate of peptide column (SDS-PAGE, electronic autoradiography): ovine tracheal membrane proteins, eluate phosphorylated with γ[32P]ATP", "experimental": "as §1\n18. Human nasal epithetium: Apical membrane proteins from human nasal epithelium were solubilised at 4° C. (10 mM KOH, 0.1% Tween), dialysed against PBS-Tween containing protease inhibitors (3 h) and spun at 150 000 g for 1 h. The supernatant was then re-circulated over affinity supports containing either synthetic peptide KENIIFGVSYDEYR or KENIIGVSYDEYR, corresponding to the F508 region of wild-type or […] mutant CFTR, respectively. The columns were washed with PBS-Tween (0.1%) and eluted with 1M KI. Fractions (40×1 ml) were slot blotted onto nitrocellulose under vacuum. The blots were washed in buffer A (10 mM MOPS pH 7.9, 1 mM MgCl2, 0.05% Triton X-100, 1 mM ATP) for 10 min and subsequently labelled with 5 nM γ[^32P]ATP (specific activity 222 TBq/mmol) in buffer A (1 h at room temperature). The blots were finally washed with PBS-Tween (0.1%) for 30 min (6 buffer changes) and visualised using electronic autoradiography. Sheep tracheal epithelia. The pelleted membranes from sheep tracheal epithelia were solubilised with 0.1% glucopyranoside in 50 mM HEPES pH 7.4 on ice for 1 h and centrifuged at 100 000×g for 30 min. The supernatant was applied to a peptide affinity column (KDNIIFGVSYDEYRC, corresponding to the F508 region of ovine wild-type CFTR, coupled to epoxy activated POROS 20 media using the additional terminal cysteine residue). The column was washed with load buffer containing 1M NaCl, followed by load buffer only (100 column volumes or stable OD280˜0.015). Bound proteins were eluted with 50 mM glycine-NaOH pH 11 containing 0.1% glucopyranoside and immediately neutralised with 1M Tris-HCl pH 8.0."}},
  "data": [
    {"compound": "KENIIGVSYDEYR [synthetic peptide corresponding to the F508 region of ΔF508 mutant human CFTR]", "values": [
      {"measurement": "phosphorylatable protein bound by and eluted from peptide-affinity column", "setting": "NDPK [1]", "value": "No phosphorylation was observed"}
    ]},
    {"compound": "Nc1nc2c(ncn2[C@@H]2O[C@H](COP(=O)(O)OP(=O)(O)O)[C@@H](O)[C@H]2O)c(=O)[nH]1", "note": "[GDP]", "values": [
      {"measurement": "enhancement of phosphorylation of the 37 kDa protein", "setting": "p37 (Anx I); ATP (50 nM)+GDP (500 nM), 37° C., 5 min (ref 15)", "value": 20, "unit": "fold"},
      {"measurement": "effect on p37 (Anx I) phosphorylation", "setting": "p37 (Anx I); previously found (ref 15)", "value": "enhanced"},
      {"measurement": "effect on Anx I phosphorylation, Cftr^tm1Cam cytosol", "setting": "Anx I [2]; Cftr^tm1Cam cytosol, GDP added to γ[32P]ATP", "value": "partial restoration of Anx I phosphorylation"},
      {"measurement": "effect on histidine phosphorylation of Anx I, Cftr^tm1Cam membranes", "setting": "Anx I [2]; Cftr^tm1Cam membranes, ATP+GDP", "value": "failed to either restore or enhance"},
      {"measurement": "effect on Anx I phosphorylation, wild type membranes", "setting": "Anx I [2]; wild type murine membranes, γ[32P]ATP+GDP", "value": "enhancement was also observed"}
    ]},
    {"compound": "CCOC(=O)OC(=O)OCC", "note": "[diethylpyrocarbamate]", "values": [
      {"measurement": "effect of pre-incubation on Anx I phospho-linkage", "setting": "Anx I [3]", "value": "inhabitable"}
    ]},
    {"compound": "Nc1ncnc2c1ncn2[C@@H]1O[C@@H]2COP(=O)(O)O[C@H]2[C@H]1O", "note": "[cyclic AMP]", "values": [
      {"measurement": "inhibition of p37 phosphorylation", "setting": "annexin I; observed whilst characterising NDPK", "value": "inhibiton of p^37 phosphorylation"}
    ]},
    {"compound": "KDNIIFGVSYDEYR [equivalent ovine wild-type CFTR peptide; coupled to the column via an additional terminal cysteine]", "values": [
      {"measurement": "Western blot of eluate with antibodies specific to NDPK", "setting": "NDPK [4]", "value": "detected a 21 kDa protein, indicating the presence of NDPK"},
      {"measurement": "Western blot of eluate with antibodies specific to NDPK", "setting": "NDPK [4]; listed as ovine CFTR peptide", "value": "detected a 21 kDa protein"},
      {"measurement": "phosphorylated species in eluate of peptide column (SDS-PAGE, electronic autoradiography)", "setting": "NDPK [4]", "value": "a 19/21 kDa doublet was the sole phosphorylated species in the eluate"},
      {"measurement": "phosphorylated species in eluate of peptide column (SDS-PAGE, electronic autoradiography)", "setting": "NDPK [4]; listed as ovine CFTR peptide", "value": "showed a 19/21 kDa phosphoprotein"}
    ]},
    {"compound": "KENIIFGVSYDEYR [synthetic peptide corresponding to the F508 region of wild-type human CFTR]", "values": [
      {"measurement": "phosphorylatable protein bound by and eluted from peptide-affinity column", "setting": "NDPK [1]", "value": "bound protein(s) that could be phosphorylated"},
      {"measurement": "phosphorylatable protein bound by and eluted from peptide-affinity column", "setting": "NDPK [1]; listed as wild-type peptide", "value": "a phosphoprotein was observed in fraction 22"}
    ]},
    {"compound": "CCCC(=O)Nc1ncnc2c1ncn2[C@@H]1O[C@@H]2COP(=O)(O)O[C@H]2[C@H]1O", "note": "[N^6-mbcAMP, N^6-monobutyryladenosine 3′:5′ cyclic monophosphate]", "values": [
      {"measurement": "concentration of maximal inhibition of (histidine) phosphorylation of annexin I", "setting": "annexin I; pre-incubation 0-1 mM, 4° C., 30 min, γ[32P]ATP 37° C., 5 min", "value": 1, "unit": "mM"}
    ]}
  ]
}
